Measurements taken from a compilation of properties of binary mixtures (doi:10.1016/j.molliq.2021.116463).

Experiment: xn = mol fraction of the nth substance listed
Conditions: 100 kPa

[Cl-].c1c[nH+]c[nH]1 + OCC(O)CO
viscosity [mPa·s]
Conditions	293.2 K	303.2 K	313.2 K	323.2 K	333.2 K	343.2 K	353.2 K
x1 = 0.1667	565	397	–	196	149.3	127.7	116.4
x1 = 0.25	429	294	207	–	60.9	37.7	24.8
x1 = 0.3333	321	219	–	–	49.6	31.2	20.6
x1 = 0.5	472	355	285	141.2	–	–	38.2
